# Literature values in patent publication US9133185B2, “Heteroaryl derivatives” (CHIESI FARMACEUTICI S.P.A., priority 2013, dated 2015).
# What was measured:
# [1] = tested on: smoking model of COPD in mice
# [2] = COPD patients, 500 mg once daily, given over 12 months
# [3] = COPD patients, oral, given over 4 weeks
# [4] = patients with severe disease who have frequent exacerbations and mucus hypersecretion
smiles,measurement,setting,value
"O=C(Nc1c(Cl)cncc1Cl)c1ccc(OC(F)F)c(OCC2CC2)c1 [Roflumilast, roflumilast]",lung function,COPD patients; [2],improved lung function in COPD patients to a small extent
same,reducing exacerbations or improving quality of life,COPD patients; [2],little effect
same,CXCL8 concentrations in sputum,COPD patients; [3],significantly reduces
same,reduction of the numbers of neutrophils in sputum,COPD patients; [3],36%
same,improvement of FEV 1,COPD patients; [4],approximately 50 mL
same,reduction of exacerbation,COPD patients; [4],about 15%
same,lung inflammation and emphysema,[1],inhibits lung inflammation and emphysema
